Source: patent publication US20250276982A1, “KRAS INHIBITORS” (ASCENTAGE PHARMA (SUZHOU) CO., LTD., priority 2021, published 2025)
pIC50: −log10 of the molar value. Blank lines part the entries; values can stand above or below the compound they belong to.

Assays:
Format in all cases: cell-based
GP2d cells = experiment: Cellular proliferation assay in GP2d cells (CellTiterGlo luminescent cell viability assay); conditions: 72 hours treatment, CellTiter-Glo
Protocol: Example 32: Cellular Proliferation Assay in GP2d Cells
The inhibitory effect of test compounds on cellular proliferation was determined using CellTiterGlo® luminescent cell viability assay (Promega) following manufacturer's instruction.
GP2d cells (ECACC #95090715) were cultured in DMEM medium supplemented with 10% fetal bovine serum, 10 U/ml penicillin and 10 ug/ml streptomycin. Cells were plated in 96-well plates at a density of 2000 cells/well and allowed attach for […]. Then the cells were treated with various concentrations of test compounds for 72 hours. CellTiter-Glo® Reagent was added to wells and incubated for 10 minutes at room temperature. The plates were read on GloMax® 96 Microplate Luminometer or compatible microplate readers. The percentage of cellular viability was calculated as: […]

[1] = test system: phosphorylation of ERK1/2 in AGS cells with KRAS-G12D mutation; experiment: Detection of phosphorylation of ERK1/2 in AGS cells (AlphaLISA SureFire Ultra p-ERK 1/2 (Thr202/Tyr204) assay); conditions: Homo sapiens, 3 hours, AlphaLISA p-ERK 1/2 (Thr202/Tyr204)
Protocol: Example 33: Detection of Phosphorylation of ERK1/2 in AGS Cells
The inhibitory effect of test compounds on phosphorylation of ERK1/2 were determined using the AlphaLISA® SureFire® Ultra™ p-ERK 1/2 (Thr202/Tyr204) assay following the manufacturer's instructions (ALSU-PERK-A500, PerkinElmer Inc.).
AGS cells (ATCC CRL-1739) with KRAS-G12D mutation were cultured in DMEM medium supplemented with 10% fetal bovine serum, 10 U/ml penicillin and 10 μg/ml streptomycin. Cells were plated in 96-well plates at a density of 4000 cells/well. After 16-18 hours incubation, various concentrations of compounds were added to cells with a final concentration of 0.2% DMSO. After 3 hours, the medium was removed, and the cells were lysed in 50 uL lysis buffer. 10 uL of lysate was transferred to a half area 96-well plate, 5 ul of acceptor mix was added to wells and incubated at room temperature for 1 hour, then 5 ul of donor mix was added to wells. After 1 hour incubation at room temperature, the plate was read on an Alpha Technology-compatible plate reader, using standard AlphaLISA settings. The assays were carried out in duplicates.

p-ERK in AGS cells = experiment: p-ERK assay in AGS cells (fixed cells, anti-p-ERK / β-Actin antibodies, IR imaging); conditions: Homo sapiens, 3 h at 37° C., p-ERK detected by antibody with β-Actin, IR fluorescence
Protocol: The expression of p-ERK was detected in this assay. At first, the AGS cells (40000 cells/well) were seeded in 96-well plate culture overnight and treated with KRAS-G12D compounds inhibitors at concentrations of 1, 0.33, 0.11, 0.03, 0.01, 0.004, 0.001, 0.0004, 0.0001 μM for 3 h at 37° C. Then, add an equal volume (100 μL) of 8% paraformaldehyde solution to fix and crosslink the cells to the microplate for 15 minutes. Add 100 μL of 1× permeabilization solution to wells for 30 min and add 100 μL of 1× blocking solution for 2 h. Wash with PBS 3 times after each reaction. At last, Incubation with primary antibody (Anti-mouse β-Actin and Anti-rabbit p-ERK) and secondary antibody (Goat anti-Mouse IgG H&L IRDye 800CW and Goat anti-Rabbit IgG H&L IRDye 680RW) for 2 h, As appropriate, image the microplate with an IR scanner or develop the HRP labeled microplate and read it with a spectrophotometer. The fluorescence signal was monitored using a microplate reader (Azure biosystems, Sapphire biomolecular imager) using excitation and emission wavelengths of 680 and 800 nm, respectively. Export data. The inhibitor dose-reponse curves were analyzed using normalized IC50 regression curve fitting with control based normalization.

SMILES: Oc1cc(-c2ncc3c(N4C[C@H]5CC[C@@H](C4)N5)nc(OC[C@@]45CCCN4C[C@H](F)C5)nc3c2F)c2c(ccc3ccoc32)c1 [Example 1, 9-(4-((1R,5S)-3,8-diazabicyclo[3.2.1]octan-3-yl)-8-fluoro-2-(((2R,7aS)-2-fluorotetrahydro-1H-pyrrolizin-7a(5H)-yl)methoxy)pyrido[4,3-d]pyrimidin-7-yl)naphtho[1,2-b]furan-7-ol]
- pIC50 (GP2d cells): 6.17
- pIC50 [1]: 6.39
- pIC50 (p-ERK in AGS cells): 6.97

SMILES: Oc1cc(-c2ncc3c(N4C[C@H]5CC[C@@H](C4)N5)nc(OC[C@@]45CCCN4C[C@H](F)C5)nc3c2F)c2c3c(ccc2c1)CCC3 [Example 2, 9-(4-((1R,5S)-3,8-diazabicyclo[3.2.1]octan-3-yl)-8-fluoro-2-(((2R,7aS)-2-fluorotetrahydro-1H-pyrrolizin-7a(5H)-yl)methoxy)pyrido[4,3-d]pyrimidin-7-yl)-2,3-dihydro-1H-cyclopenta[a]naphthalen-7-ol]
- pIC50 (GP2d cells): 6.89
- pIC50 [1]: 7.11
- pIC50 (p-ERK in AGS cells): 7.96

SMILES: C[C@@H]1COCCN1CC1(COc2nc(N3C[C@H]4CC[C@@H](C3)N4)c3cnc(-c4cc(O)cc5ccc6c(c45)CCC6)c(F)c3n2)CC1 [Example 11, 9-(4-((1R,5S)-3,8-diazabicyclo[3.2.1]octan-3-yl)-8-fluoro-2-((1-(((R)-3-methylmorpholino)methyl)cyclopropyl)methoxy)pyrido[4,3-d]pyrimidin-7-yl)-2,3-dihydro-1H-cyclopenta[a]naphthalen-7-ol]
- pIC50 (GP2d cells): 6.77
- pIC50 (p-ERK in AGS cells): 6.87

SMILES: Oc1cc(-c2ncc3c(N4C[C@H]5CC[C@@H](C4)N5)nc(OC[C@@]45CCCN4C[C@H](F)C5)nc3c2F)c2c(c1)c(Cl)c1n2CCC1 [Example 20, 5-(4-((1R,5S)-3,8-diazabicyclo[3.2.1]octan-3-yl)-8-fluoro-2-(((2R,7aS)-2-fluorotetrahydro-1H-pyrrolizin-7a(5H)-yl)methoxy)pyrido[4,3-d]pyrimidin-7-yl)-9-chloro-2,3-dihydro-1H-pyrrolo[1,2-a]indol-7-ol]
- pIC50 (GP2d cells): 5.62
- pIC50 (p-ERK in AGS cells): 6.65

SMILES: Oc1cc(-c2ccc3c(N4C[C@H]5CC[C@@H](C4)N5)nc(OCC4(CN5C6CCC5COC6)CC4)nc3c2F)c2c3c(ccc2c1)CCC3 [Example 27, 9-(2-((1-((3-oxa-8-azabicyclo[3.2.1]octan-8-yl)methyl)cyclopropyl)methoxy)-4-((1R,5S)-3,8-diazabicyclo[3.2.1]octan-3-yl)-8-fluoroquinazolin-7-yl)-2,3-dihydro-1H-cyclopenta[a]naphthalen-7-ol]
- pIC50 (GP2d cells): 6.43
- pIC50 (p-ERK in AGS cells): 6.88

SMILES: Oc1cc(-c2ncc3c(N4C[C@H]5CC[C@@H](C4)N5)nc(OC[C@@]45CCCN4C[C@H](F)C5)nc3c2F)c2c3c(ccc2c1)CCCC3 [Example 16, 4-(4-((1R,5S)-3,8-diazabicyclo[3.2.1]octan-3-yl)-8-fluoro-2-(((2R,7aS)-2-fluorotetrahydro-1H-pyrrolizin-7a(5H)-yl)methoxy)pyrido[4,3-d]pyrimidin-7-yl)-5,6,7,8-tetrahydrophenanthren-2-ol]
- pIC50 (GP2d cells): 6.07
- pIC50 (p-ERK in AGS cells): 8.30

SMILES: Fc1c(-c2cccc3ccc4c(c23)CCO4)ncc2c(N3C[C@H]4CC[C@@H](C3)N4)nc(OC[C@@]34CCCN3C[C@H](F)C4)nc12 [Example 3, 4-((1R,5S)-3,8-diazabicyclo[3.2.1]octan-3-yl)-7-(1,2-dihydronaphtho[2,1-b]furan-9-yl)-8-fluoro-2-(((2R,7aS)-2-fluorotetrahydro-1H-pyrrolizin-7a(5H)-yl)methoxy)pyrido[4,3-d]pyrimidine]
- pIC50 (GP2d cells): 5.06
- pIC50 (p-ERK in AGS cells): 5.06

- pIC50 (p-ERK in AGS cells): 6.83
SMILES: Oc1cc(-c2ncc3c(N4CC5CCC4CN5)nc(OC[C@@]45CCCN4C[C@H](F)C5)nc3c2F)c2c3c(ccc2c1)CCC3 (stereo partly drawn) [Example 7, 9-(4-(2,5-diazabicyclo[2.2.2]octan-2-yl)-8-fluoro-2-(((2R,7aS)-2-fluorotetrahydro-1H-pyrrolizin-7a(5H)-yl)methoxy)pyrido[4,3-d]pyrimidin-7-yl)-2,3-dihydro-1H-cyclopenta[a]naphthalen-7-ol]
- pIC50 (GP2d cells): 6.04

SMILES: O=C1CCc2ccc3cc(O)cc(-c4ncc5c(N6C[C@H]7CC[C@@H](C6)N7)nc(OC[C@@]67CCCN6C[C@H](F)C7)nc5c4F)c3c21 [Example 17, 9-(4-((1R,5S)-3,8-diazabicyclo[3.2.1]octan-3-yl)-8-fluoro-2-(((2R,7aS)-2-fluorotetrahydro-1H-pyrrolizin-7a(5H)-yl)methoxy)pyrido[4,3-d]pyrimidin-7-yl)-7-hydroxy-2,3-dihydro-1H-cyclopenta[a]naphthalen-1-one]
- pIC50 (GP2d cells): 4.80
- pIC50 (p-ERK in AGS cells): 6.57

SMILES: Oc1cc(-c2ncc3c(N4C[C@H]5CC[C@@H](C4)N5)nc(OC[C@@]45CCCN4C[C@H](F)C5)nc3c2F)c2c3c(ccc2c1)OCC3 [Example 6, 9-(4-((1R,5S)-3,8-diazabicyclo[3.2.1]octan-3-yl)-8-fluoro-2-(((2R,7aS)-2-fluorotetrahydro-1H-pyrrolizin-7a(5H)-yl)methoxy)pyrido[4,3-d]pyrimidin-7-yl)-1,2-dihydronaphtho[2,1-b]furan-7-ol]
- pIC50 (GP2d cells): 5.03
- pIC50 (p-ERK in AGS cells): 6.23

SMILES: Oc1cc(-c2ncc3c(N4C[C@H]5CC[C@@H](C4)N5)nc(OCCCN4C5CCC4COC5)nc3c2F)c2c3c(ccc2c1)CCC3 [Example 10, 9-(2-(3-(3-oxa-8-azabicyclo[3.2.1]octan-8-yl)propoxy)-4-((1R,5S)-3,8-diazabicyclo[3.2.1]octan-3-yl)-8-fluoropyrido[4,3-d]pyrimidin-7-yl)-2,3-dihydro-1H-cyclopenta[a]naphthalen-7-ol]
- pIC50 (GP2d cells): 6.58
- pIC50 (p-ERK in AGS cells): 6.69

SMILES: Oc1cc(-c2ncc3c(N4C[C@H]5CC[C@@H](C4)N5)nc(OC[C@@]45CCCN4C[C@H](F)C5)nc3c2F)c2c3c(ccc2c1)COC3 [Example 21, 9-(4-((1R,5S)-3,8-diazabicyclo[3.2.1]octan-3-yl)-8-fluoro-2-(((2R,7aS)-2-fluorotetrahydro-1H-pyrrolizin-7a(5H)-yl)methoxy)pyrido[4,3-d]pyrimidin-7-yl)-1,3-dihydronaphtho[1,2-c]furan-7-ol]
- pIC50 (GP2d cells): 6.58
- pIC50 (p-ERK in AGS cells): 7.28

SMILES: Fc1c(-c2cccc3ccc4occc4c23)ncc2c(N3C[C@H]4CC[C@@H](C3)N4)nc(OC[C@@]34CCCN3C[C@H](F)C4)nc12 [Example 4, 4-((1R,5S)-3,8-diazabicyclo[3.2.1]octan-3-yl)-8-fluoro-2-(((2R,7aS)-2-fluorotetrahydro-1H-pyrrolizin-7a(5H)-yl)methoxy)-7-(naphtho[2,1-b]furan-9-yl)pyrido[4,3-d]pyrimidine]
- pIC50 (GP2d cells): 5.32
- pIC50 (p-ERK in AGS cells): 5.31
